The source of these data is PubChem BioAssay AID200 (DTP/NCI, 2004).

“And” between values parts separate entries of the source, which are not always exact repeats. Equal values may be shown once. Toxic doses and inconclusive results are not listed.

This assay deals with B6C3F1 mice, B16 melanoma ip, median survival T/C. Kind of assay: NCI In Vivo Anticancer Drug Screen. Data for tumor model B16 Melanoma (intraperitoneal) in B6C3F1 mice. The conditions noted are these: endpoint: median survival time, schedule: Q01DX009 (ip), higher = longer survival. Put shortly:
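Values are T/C ratios: the measurement in treated animals divided by that in vehicle-treated controls, using survival or tumor size in mice carrying transplantable tumors.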

The mark [1] stands for this setting: dose: 6.25 mg/kg/injection, vehicle: Klucel (hydroxypropylcellulose) (HPC).
Where [2] appears, read: dose: 12.5 mg/kg/injection, vehicle: Klucel (hydroxypropylcellulose) (HPC).
Where [3] appears, read: dose: 50.0 mg/kg/injection, vehicle: DMSO.
Where [4] appears, read: dose: 100.0 mg/kg/injection, vehicle: DMSO.
Setting [5] is: dose: 200.0 mg/kg/injection, vehicle: DMSO.
Where [6] appears, read: dose: 200.0 mg/kg/injection, vehicle: Klucel (hydroxypropylcellulose) (HPC).
The mark [7] stands for this setting: dose: 25.0 mg/kg/injection, vehicle: Klucel (hydroxypropylcellulose) (HPC).
Where [8] appears, read: dose: 6.25 mg/kg/injection, vehicle: saline with Tween-80.
Where [9] appears, read: dose: 12.5 mg/kg/injection, vehicle: saline with Tween-80.
[10] abbreviates: dose: 25.0 mg/kg/injection, vehicle: saline with Tween-80.
[11] abbreviates: dose: 50.0 mg/kg/injection, vehicle: saline with Tween-80.
Where [12] appears, read: dose: 3.12 mg/kg/injection, vehicle: saline with Tween-80.
The mark [13] stands for this setting: dose: 100.0 mg/kg/injection, vehicle: saline with Tween-80.
Where [14] appears, read: dose: 200.0 mg/kg/injection, vehicle: saline with Tween-80.
The mark [15] stands for this setting: dose: 12.5 mg/kg/injection, vehicle: saline.

Consider `COC(C(=O)C(O)C(C)O)C1CC2C=C3C=C(OC4CC(OC5CC(O)C(OC)C(C)O5)C(OC(C)=O)C(C)O4)C(C)C(=O)C3=C(O)C2=C(O)C1OC1CC(OC2CC(OC3CC(C)(O)C(O)C(C)O3)C(O)C(C)O2)C(O)C(C)O1` (centres undefined), for which the T/C reads like this: (dose: 0.25 mg/kg/injection, vehicle: saline with Tween-80) 109 % of control; (dose: 0.5 mg/kg/injection, vehicle: saline with Tween-80) 120 % of control; (dose: 1.0 mg/kg/injection, vehicle: saline with Tween-80) 120 % of control; (dose: 4.0 mg/kg/injection, vehicle: saline with Tween-80) 178 % of control; (dose: 8.0 mg/kg/injection, vehicle: saline with Tween-80) 178 % of control.
Regarding `NC(N)=NCCCC(NC(=O)c1ccccc1)C(=O)O` (centres undefined), the T/C reads like this: (dose: 40.0 mg/kg/injection, vehicle: saline with Tween-80) 95 % of control and 102 % of control (2×); (dose: 80.0 mg/kg/injection, vehicle: saline with Tween-80) 122 % of control and 95 % of control and 96 % of control; (dose: 160.0 mg/kg/injection, vehicle: saline with Tween-80) 108 % of control and 102 % of control; (dose: 320.0 mg/kg/injection, vehicle: saline with Tween-80) 108 % of control and 105 % of control and 106 % of control; (dose: 640.0 mg/kg/injection, vehicle: saline with Tween-80) 113 % of control.
Turning to `O=NN(CCCl)C(=O)Oc1ccc(OC(=O)N(CCCl)N=O)cc1`, the T/C (dose: 3.12 mg/kg/injection, vehicle: Klucel (hydroxypropylcellulose) (HPC)) is 112 % of control; the T/C under setting [1] was 107 % of control; the T/C under setting [2] was 107 % of control.
As to `CC1(C)CC23C4COC(=O)C2CCC1C3CC4=O` (centres undefined), the T/C by setting is: (dose: 6.25 mg/kg/injection, vehicle: DMSO) 89 % of control; (dose: 12.5 mg/kg/injection, vehicle: DMSO) 90 % of control; (dose: 25.0 mg/kg/injection, vehicle: DMSO) 97 % of control; under setting [3], 99 % of control; under setting [4], 88 % of control; under setting [5], 96 % of control.
For `CC(NC(=O)OCC1c2ccccc2-c2ccccc21)C(=O)O` (centres undefined), the T/C reads like this: (dose: 100.0 mg/kg/injection, vehicle: Klucel (hydroxypropylcellulose) (HPC)) 104 % of control; under setting [6], 101 % of control; (dose: 400.0 mg/kg/injection, vehicle: Klucel (hydroxypropylcellulose) (HPC)) 87 % of control.
For the molecule `c1cc(OCC2CO2)ccc1OCC1CO1` (centres undefined), the T/C was 109 % of control under setting [2]; 121 % of control and 103 % of control under setting [7]; 105 % of control (dose: 50.0 mg/kg/injection, vehicle: Klucel (hydroxypropylcellulose) (HPC)); 117 % of control under setting [6].
For `CCCCNP1(NCCCC)=NP(NCCCC)(NCCCC)=NP(NCCCC)(NCCCC)=NP(NCCCC)(NCCCC)=N1`, the T/C was 111 % of control and 98 % of control under setting [8]; 115 % of control and 122 % of control and 101 % of control under setting [9]; 119 % of control and 104 % of control under setting [10]; 115 % of control under setting [11].
For `O=C(CCCN1CCC(C(O)c2ccc(F)cc2)CC1)c1ccc(F)cc1` (centres undefined), the T/C by setting is: (dose: 1.56 mg/kg/injection, vehicle: saline with Tween-80) 92 % of control; under setting [12], 96 % of control; under setting [8], 103 % of control; under setting [9], 92 % of control.
`C=C1CCC2C(c3c(C)c(O)c4c(c31)C(=O)C(C)C4)C2(C)C` (centres undefined): the T/C (dose: 3.13 mg/kg/injection, vehicle: Klucel (hydroxypropylcellulose) (HPC)) was 102 % of control; the T/C under setting [1] was 89 % of control; the T/C under setting [2] is 95 % of control; the T/C under setting [7] was 89 % of control.
With `CCSc1ncnc2c1ncn2C1OC(CO)C(O)C1O` (centres undefined), the T/C reads like this: under setting [11], 93 % of control; under setting [13], 95 % of control.
Consider `CCOc1cc2c(cc1C(C)c1ccc(OC)cc1)OCO2` (centres undefined), for which the T/C is 116 % of control (dose: 12.5 mg/kg/injection, vehicle: distilled water + alcohol); 113 % of control (dose: 25.0 mg/kg/injection, vehicle: distilled water + alcohol); 102 % of control (dose: 50.0 mg/kg/injection, vehicle: distilled water + alcohol); 98 % of control (dose: 100.0 mg/kg/injection, vehicle: distilled water + alcohol); 108 % of control (dose: 200.0 mg/kg/injection, vehicle: distilled water + alcohol).
Regarding `O=C(CO)c1ccc([N+](=O)[O-])cc1`, the T/C by setting is: under setting [12], 113 % of control; under setting [8], 94 % of control; under setting [10], 105 % of control; under setting [11], 100 % of control; under setting [13], 93 % of control.
Take `CN(C)P(=O)(Oc1ccccc1)N(C)C`: the T/C was 114 % of control and 98 % of control under setting [9]; 100 % of control and 101 % of control under setting [10]; 98 % of control and 99 % of control under setting [11]; 110 % of control and 99 % of control under setting [13]; 101 % of control and 103 % of control under setting [14].
Regarding `CCN(CC)CCCC(C)Nc1c2ccc(C)cc2nc2ccc(OC)cc12` (centres undefined), the T/C by setting is: under setting [15], 102 % of control; (dose: 25.0 mg/kg/injection, vehicle: saline) 111 % of control.
For the molecule `CN(C)c1ccc(C(=C2C=CC(=[N+](C)C)C=C2)c2ccc(N(C)C)cc2)cc1` (tested in a mixture with another compound), the T/C (dose: 0.62 mg/kg/injection, vehicle: saline) was 95 % of control; the T/C (dose: 1.25 mg/kg/injection, vehicle: saline) was 105 % of control; the T/C (dose: 2.5 mg/kg/injection, vehicle: saline) is 104 % of control.
For `O=C(O)[C@H](Cc1ccccc1)N1C(=O)c2ccccc2C1=O`, the T/C is, setting by setting: under setting [3], 96 % of control; under setting [4], 99 % of control; under setting [5], 99 % of control; (dose: 800.0 mg/kg/injection, vehicle: DMSO) 88 % of control.
For `OC(CN1CCCC2CCCCC21)c1cc2ccccc2c2ccccc12` (centres undefined), the T/C is, setting by setting: under setting [10], 100 % of control; under setting [11], 100 % of control; under setting [13], 96 % of control and 97 % of control.
Regarding `O=c1[nH]c2c(ccc3cnccc32)c2c1CCC2`, the T/C was 97 % of control (dose: 3.12 mg/kg/injection, vehicle: saline); 113 % of control (dose: 6.25 mg/kg/injection, vehicle: saline); 119 % of control under setting [15].
On to `CN1CCC(c2ccccc2)(c2ccccc2)C(=O)C1`, for which the T/C under setting [10] was 97 % of control; the T/C under setting [11] is 90 % of control; the T/C under setting [13] was 93 % of control and 95 % of control.
`Nc1ccc2ccc(O)cc2c1`: the T/C is, setting by setting: under setting [10], 104 % of control; under setting [11], 97 % of control; under setting [13], 105 % of control.
On to `Nc1nc(N)c(N=O)c(Nc2ccc(I)cc2)n1`, for which the T/C is, setting by setting: under setting [11], 115 % of control; under setting [13], 110 % of control; under setting [14], 98 % of control.
Take `CC(C)CC1C(=O)OC(C(C)C)C(=O)N(C)C(CC(C)C)C(=O)OC(C(C)C)C(=O)N(C)C(CC(C)C)C(=O)OC(C(C)C)C(=O)N(C)C(CC(C)C)C(=O)OC(C(C)C)C(=O)N1C` (centres undefined): the T/C is 97 % of control (dose: 1.0 mg/kg/injection, vehicle: saline); 99 % of control (dose: 2.0 mg/kg/injection, vehicle: saline); 104 % of control (dose: 4.0 mg/kg/injection, vehicle: saline); 102 % of control (dose: 8.0 mg/kg/injection, vehicle: saline); 101 % of control (dose: 16.0 mg/kg/injection, vehicle: saline).
